Reference: patent publication US8846951B2 (AbbVie Inc., priority 2009, dated 2014)
Where two headings read alike, the source gives them in different places.

Assays:
[1] = target: T1, 5HT2B receptors (Homo sapiens, UniProt P41595); assay: Human 5-HT2B functional high throughput screening assay in CHO-K1 cells (calcium flux); assay type: cell-based; conditions: for EC50: CHO-K1 cells, calcium flux
T1 construct: expressed in transfected cells; host or cells: CHO-K1 cells
How it was run: (§1)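 FLIPR calcium readout, ex 480/em 530 nm, 25 °C, 3 min post-addition; agonist response normalized to serotonin, 4-parameter fit → EC50, Emax (% serotonin). Cells: frozen CHO-K1 stable lines, serum-free overnight, Ca4 dye + 2.5 mM probenecid, 60 min RT dark.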

[2] = target: T2, 5HT2C receptors (Homo sapiens, UniProt P28335); assay: Human 5-HT2C functional high throughput screening assay in CHO-K1 cells (calcium flux); assay type: cell-based; parameters: expressed in transfected cells; host or cells: CHO-K1 cells; conditions: for Emax: CHO-K1; for EC50: CHO-K1 cells, calcium flux
T2 sequence (P28335 33-458): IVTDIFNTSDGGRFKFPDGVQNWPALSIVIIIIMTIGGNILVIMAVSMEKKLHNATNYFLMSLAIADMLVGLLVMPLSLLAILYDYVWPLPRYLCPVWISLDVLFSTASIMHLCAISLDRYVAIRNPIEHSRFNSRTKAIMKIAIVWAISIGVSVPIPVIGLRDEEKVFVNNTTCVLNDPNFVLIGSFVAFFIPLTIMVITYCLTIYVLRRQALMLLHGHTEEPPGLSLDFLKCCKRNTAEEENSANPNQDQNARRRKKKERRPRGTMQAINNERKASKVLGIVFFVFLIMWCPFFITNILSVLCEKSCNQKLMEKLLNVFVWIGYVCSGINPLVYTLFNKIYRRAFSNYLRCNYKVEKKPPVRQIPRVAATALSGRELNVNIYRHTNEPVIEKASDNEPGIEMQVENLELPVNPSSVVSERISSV
How it was run: as §1

[3] = 5-HT2B, maximum functional response as percentage relative to the effect of serotonin
[4] = 5-HT2C, maximum functional response as percentage relative to the effect of serotonin
[5] = 5-HT2B agonist activity, read-out: EC50
[6] = 5-HT2C agonist activity, read-out: EC50
[7] = 5-HT2C, maximum functional response as percentage relative to the effect of serotonin, read-out: Emax

T1 sequence (P41595 whole entry): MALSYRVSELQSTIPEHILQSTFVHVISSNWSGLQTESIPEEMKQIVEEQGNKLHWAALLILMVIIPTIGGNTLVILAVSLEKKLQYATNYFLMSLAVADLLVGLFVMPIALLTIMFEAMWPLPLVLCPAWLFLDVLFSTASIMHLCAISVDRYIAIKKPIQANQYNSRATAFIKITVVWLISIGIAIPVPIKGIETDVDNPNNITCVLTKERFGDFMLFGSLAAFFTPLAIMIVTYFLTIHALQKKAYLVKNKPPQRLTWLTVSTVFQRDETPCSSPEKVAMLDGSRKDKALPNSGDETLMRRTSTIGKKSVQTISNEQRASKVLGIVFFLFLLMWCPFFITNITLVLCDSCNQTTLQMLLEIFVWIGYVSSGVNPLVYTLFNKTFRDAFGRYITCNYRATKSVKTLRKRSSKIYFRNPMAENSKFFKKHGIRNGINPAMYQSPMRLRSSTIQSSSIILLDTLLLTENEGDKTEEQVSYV

In the case of O=C1NC[C@H]2CNC[C@@H]2c2ccc(OCc3ccccc3F)cc21 [Example 179, (3aR,10bS)-8-(2-Fluorobenzyloxy)-1,2,3,3a,4,5-hexahydrobenzo[e]pyrrolo[3,4-e]azepin-6(10bH)-one], the Emax [1, 3] is reported as “inactive”, the EC50 ([1]; EC50, 5-HT2B agonist activity) is reported as over 10000 nM and the Emax [2, 4] is reported as over 120%. It also gave an EC50 ([2]; EC50, 5-HT2C agonist activity) of 0.3 nM.

In the case of CN1C[C@H]2CNC(=O)c3cc(C(=O)Nc4ccccc4)ccc3[C@@H]2C1 (relative stereo) [Example 128, Trans-2-methyl-6-oxo-N-phenyl-1,2,3,3a,4,5,6,10b-octahydrobenzo[e]pyrrolo[3,4-c]azepine-8-carboxamide], the EC50 [1, 5] is reported as over 10000 nM, the Emax [1, 3] is reported as “inactive” and the EC50 [2, 6] is reported as 2000 nM. For the same compound, the Emax [2, 7] was 50%.

For C[C@@H](Cc1ccccc1)Oc1ccc2c(c1)C(=O)NC[C@@H]1CN(Cc3ccccc3)C[C@@H]21 (mixture of isomers) [Example 120, Trans-2-benzyl-8-((S)-1-phenylpropan-2-yloxy)-1,2,3,3a,4,5-hexahydrobenzo[e]pyrrolo[3,4-c]azepin-6(10bH)-one], the EC50 [1, 5] was over 10000 nM, the Emax [1, 3] was “inactive” and the EC50 [2, 6] was 400 nM. The Emax [2, 7] was 110%.

In the case of O=C1NC[C@@H]2CN(CCF)C[C@H]2c2ccc(-c3ccc(F)cc3)cc21 (relative stereo) [Example 384, Trans-2-(2-fluoroethyl)-8-(4-fluorophenyl)-2,3,3a,4,5,10b-hexahydropyrrolo[3,4-d][2]benzazepin-6(1H)-one], the Emax [1] is reported as “inactive”, the EC50 [1, 5] is reported as over 10000 nM and the EC50 [2, 6] is reported as 40 nM. It also gave an Emax [2] of 85%.

In the case of CN1C[C@@H]2CCOc3c(-c4cccnc4)cccc3[C@H]2C1 (relative stereo) [Example 370, Trans-2-methyl-7-(pyridin-3-yl)-2,3,3a,4,5,10b-hexahydro-1H-[1]benzoxepino[4,5-c]pyrrole], the EC50 [1, 5] is reported as over 10000 nM, the Emax [1, 3] is reported as “inactive” and the EC50 [2, 6] is reported as 400 nM. It also gave an Emax [2, 4] of 90%.

In the case of CS(=O)(=O)c1cccc(-c2cccc3c2OCC[C@H]2CNC[C@H]32)c1 (relative stereo) [Example 350, Trans-7-[3-(methylsulfonyl)phenyl]-2,3,3a,4,5,10b-hexahydro-1H-[1]benzoxepino[4,5-c]pyrrole], the EC50 [1, 5] is reported as over 10000 nM, the Emax [1, 3] is reported as “inactive” and the EC50 [2, 6] is reported as 1000 nM. It also gave an Emax [2, 7] of 75%.

With CN1C[C@H]2CNC(=O)c3cc(-c4cccnc4)ccc3[C@@H]2C1 (relative stereo) [Example 143, Trans-2-methyl-8-(pyridin-3-yl)-1,2,3,3a,4,5-hexahydrobenzo[e]pyrrolo[3,4-c]azepin-6(10bH)-one] the EC50 [1, 5] was over 10000 nM, the Emax [1, 3] was “inactive” and the EC50 [2, 6] was 300 nM. It also gave an Emax [2, 4] of over 120%.

With CN1C[C@H]2CNC(=O)c3cc(C(=O)NCCc4cccc(C(F)(F)F)c4)ccc3[C@@H]2C1 (relative stereo) [Example 127, Trans-2-methyl-6-oxo-N-(3-(trifluoromethyl)phenethyl)-1,2,3,3a,4,5,6,10b-octahydrobenzo[e]pyrrolo[3,4-c]azepine-8-carboxamide] the EC50 [1, 5] was over 10000 nM, the Emax [1, 3] was “inactive” and the EC50 [2, 6] was 1000 nM. For the same compound, the Emax [2, 7] was 80%.

CN1C[C@H]2CNC(=O)c3cc(-c4cccc(C(C)(C)O)c4)ccc3[C@@H]2C1 (relative stereo) [Example 186, Trans-8-(3-(2-hydroxypropan-2-yl)phenyl)-2-methyl-1,2,3,3a,4,5-hexahydrobenzo[e]pyrrolo[3,4-c]azepin-6(10bH)-one] was tested, and the EC50 [1, 5] was over 10000 nM, the Emax [1, 3] was “inactive” and the EC50 [2, 6] was 1 nM. The Emax [2, 7] was over 120%.

In the case of COc1cc(F)ccc1-c1ccc2c(c1)C(=O)NC[C@@H]1CN(C)C[C@@H]21 (relative stereo) [Example 299, Trans-8-(4-fluoro-2-methoxyphenyl)-2-methyl-2,3,3a,4,5,10b-hexahydropyrrolo[3,4-d][2]benzazepin-6(1H)-one], the EC50 [1, 5] is reported as over 10000 nM, the Emax [1, 3] is reported as “inactive” and the EC50 [2, 6] is reported as 10 nM. It also gave an Emax [2, 7] of 100%.

CN1C[C@H]2CNC(=O)c3cc(-c4cc(F)c(F)c(F)c4)ccc3[C@@H]2C1 (relative stereo) [Example 322, Trans-2-methyl-8-(3,4,5-trifluorophenyl)-2,3,3a,4,5,10b-hexahydropyrrolo[3,4-d][2]benzazepin-6(1H)-one] was tested, and the EC50 [1, 5] was over 10000 nM, the Emax [1, 3] was “inactive” and the EC50 [2, 6] was 20 nM. It also gave an Emax [2, 7] of 80%.

O=C1NC[C@H]2CNC[C@@H]2c2ccc(-c3ccc(F)cc3)cc21 [Example 220, (3aR,10bS)-8-(4-Fluorophenyl)-1,2,3,3a,4,5-hexahydrobenzo[e]pyrrolo[3,4-c]azepin-6(10bH)-one] was tested, and the EC50 [1, 5] was over 10000 nM, the Emax [1, 3] was “inactive” and the EC50 [2, 6] was under 0.1 nM. The Emax [2, 7] was over 120%.

For CN1C[C@@H]2CNC[C@H]2c2ccc(-c3cccc(CCO)c3)cc2C1=O (relative stereo) [Example 189, Trans-8-(3-(2-hydroxyethyl)phenyl)-5-methyl-1,2,3,3a,4,5-hexahydrobenzo[e]pyrrolo[3,4-c]azepin-6(10bH)-one], the EC50 [1, 5] was over 10000 nM, the Emax [1, 3] was “inactive” and the EC50 [2, 6] was 0.9 nM. It also gave an Emax [2, 7] of over 120%.

For CN1C[C@H]2CNC(=O)c3cc(C4=CCOCC4)ccc3[C@@H]2C1 (relative stereo) [Example 242, Trans-8-(3,6-dihydro-2H-pyran-4-yl)-2-methyl-1,2,3,3a,4,5-hexahydrobenzo[c]pyrrolo[3,4-e]azepin-6(10bH)-one], the EC50 [1, 5] was over 10000 nM, the Emax [1, 3] was “inactive” and the EC50 [2, 6] was 200 nM. The Emax [2, 7] was over 120%.

For CC(C)(C)c1ccc(S(=O)(=O)N2Cc3cccnc3[C@@H]3CNC[C@H]3C2)cc1 (relative stereo) [Example 344, Trans-6-[(4-tert-butylphenyl)sulfonyl]-5,6,7,7a,8,9,10,10a-octahydropyrido[3,2-c]pyrrolo[3,4-e]azepine], the EC50 [1, 5] was over 10000 nM, the Emax [1, 3] was “inactive” and the EC50 [2, 6] was 90 nM. For the same compound, the Emax [2, 7] was 85%.

With C[C@H](O)c1cc(-c2ccc3c(c2)C(=O)NC[C@H]2CN(C)C[C@H]32)ccc1F (single isomer, unassigned) [Example 352] the EC50 [1, 5] was over 10000 nM, the Emax [1, 3] was “inactive” and the EC50 [2, 6] was 0.4 nM. For the same compound, the Emax [2, 7] was 105%.

In the case of COc1ccc(-c2ccc3c(c2)C(=O)NC[C@@H]2CN(C)C[C@@H]32)cc1F (relative stereo) [Example 316, Trans-8-(3-fluoro-4-methoxyphenyl)-2-methyl-2,3,3a,4,5,10b-hexahydropyrrolo[3,4-d][2]benzazepin-6(1H)-one], the EC50 [1, 5] is reported as over 10000 nM, the Emax [1, 3] is reported as “inactive” and the EC50 [2, 6] is reported as 7 nM. For the same compound, the Emax [2, 7] was 80%.

For CN1C[C@H]2CNC(=O)c3c(OC(F)(F)F)cccc3[C@@H]2C1 (relative stereo) [Example 110, Trans-2-methyl-7-(trifluoromethoxy)-1,2,3,3a,4,5-hexahydrobenzo[c]pyrrolo[3,4-e]azepin-6(10bH)-one], the Emax ([1]; CHO-K1) was 15%, the EC50 ([1]; EC50, 5-HT2B agonist activity) was 900 nM and the Emax [2, 4] was over 120%.

For CC(C)Cc1ccc2c(c1)C(=O)NC[C@@H]1CN(C)C[C@@H]21 (relative stereo) [Example 244, Trans-8-isobutyl-2-methyl-1,2,3,3a,4,5-hexahydrobenzo[e]pyrrolo[3,4-c]azepin-6(10bH)-one], the Emax [1, 3] was “inactive”, the EC50 ([1]; EC50, 5-HT2B agonist activity) was over 10000 nM and the Emax [2, 4] was 80%. For the same compound, the EC50 ([2]; EC50, 5-HT2C agonist activity) was 100 nM.
